Data published in US20230132133A1, “METHODS AND COMPOSITIONS FOR THE TREATMENT OF C. DIFFICILE” (priority 2018, published 2023).
In brackets after ≈: the same amount, converted by molar mass. Several values for one entry are separate records, joined by “and”; a condition that tells them apart may be missing. Equal entries are not always repeated. Where two headings read alike, the source gives them in different places.

How the values were obtained:
[1] = test system: B. amyloliquefaciens ART12; assay: MIC of metronidazole and fidaxomicin, CLSI standard method; assay type: cell-based; details: Bacillus amyloliquefaciens, triplicates, 16 hours, read-out: MIC against ART12
Procedure: (§1) Briefly, minimum inhibitory concentration assays were carried out in triplicate using 96-well plates (Sarstedt). Two-fold serial dilutions from an initial concentration of 512 µg/mL of each antibiotic were carried out in BHI broth (Merck). An overnight of the target strain was subcultured and incubated to an OD600 nm of 0.5 before being diluted to give a final inoculum of 10^5 cfu/ml in 200 µL and added to the antibiotic preparations. The plates were incubated at an appropriate temperature and inspected after 16 hours. The MIC was determined as the lowest concentration at which no growth was visible.

[2] = test system: B. amyloliquefaciens ART24; assay: as above; assay type: cell-based; details: Bacillus amyloliquefaciens, triplicates, 16 hours, read-out: MIC against ART24
Procedure: as §1

[3] = test system: B. amyloliquefaciens ART4; assay: as above; assay type: cell-based; details: Bacillus amyloliquefaciens, triplicates, 16 hours, read-out: MIC against ART4
Procedure: as §1

[4] = test system: B. amyloliquefaciens ART24; assay: Antibiotic MIC following EFSA testing recommendations on lyophilized ART24 lots and cell banks; assay type: cell-based, Bacillus amyloliquefaciens; details: for MIC: Bacillus amyloliquefaciens
Description: The minimum inhibitory concentration (MIC) of the listed antimicrobials is expressed as µg/mL.

[5] = test system: B. amyloliquefaciens ART12; assay: Antibiotic MIC, VetMIC Lact-1 & Lact-2 panels; assay type: cell-based, Bacillus amyloliquefaciens; details: 24 hr at 37° C.; for MIC: Bacillus amyloliquefaciens, ART12
Procedure: (§2) The wells of the prefabricated 96-well plates were filled with 100 μL of the final suspension. The plates were sealed with an […], Sigma Aldrich) sealing film (to facilitate growth of the aerobic Bacillus strains. The plates were then incubated for 24 hr at 37° C. The results are recorded after 24 hours as the lowest concentration of the antibiotic to inhibit visible growth. The prefabricated panels […], Uppsala, Sweden) comprising the antibiotics ampicillin, vancomycin, gentamicin, kanamycin, streptomycin, erythromycin, clindamycin, tetracycline, chloramphenicol, neomycin, penicillin, quinupristin-dalfopristin, linezolid, trimethoprim, ciprofloxacin and rifampicin were used.

[6] = test system: B. amyloliquefaciens ART24; assay: Antibiotic MIC, VetMIC Lact-1 & Lact-2 panels; assay type: cell-based, Bacillus amyloliquefaciens; details: 24 hr at 37° C.; for MIC: Bacillus amyloliquefaciens, ART24
Procedure: as §2

[7] = test system: B. amyloliquefaciens ART4; assay: Antibiotic MIC, VetMIC Lact-1 & Lact-2 panels; assay type: cell-based, Bacillus amyloliquefaciens; details: 24 hr at 37° C.; for MIC: Bacillus amyloliquefaciens, ART4
Procedure: as §2

C. difficile ATCC 43255 = assay: C. difficile mouse model, in vivo efficacy; set-up: species or system Mice (C57BL/6J female); details: to study day 10 post-C. difficile infection
Procedure: C. difficile mouse model. The mouse model of C. difficile infection was prepared as described elsewhere (Chen, X, et al., Gastroenterology 135:1984-1992 (2008)).
Mice (C57BL/6J female) were divided prospectively into 4 treatment groups of 15 animals (Table 7) and housed 5 animals per cage.
Mice received an antibiotic cocktail for eight consecutive days in their drinking water starting 13 days prior to C. difficile infection (study day 0). The antibiotic cocktail was changed every third day with freshly prepared antibiotics provided. The antibiotic cocktail consisted of 1% glucose, kanamycin (0.5 mg/mL), gentamicin (0.044 mg/mL), colistin (1062.5 U/mL), metronidazole (0.269 mg/mL), ciprofloxacin (0.156 mg/mL), ampicillin (0.1 mg/mL) and vancomycin (0.056 mg/mL). Five days prior to C. difficile infection, the antibiotic water was removed. Animals were placed in clean cages and sterile drinking water provided to the mice. Three days prior to infection mice were administered Clindamycin at 10 mg/kg via oral gavage in a volume of 10 mL/kg.
The strain was applied to TSA agar plates from frozen stocks (3 days prior to dosing) and cultured overnight at 37° C. […]
Mice were observed daily through the course of the study. […] Clinical observations were also performed with adverse observations recorded when appropriate. […]

[8] = ART24, source CO-33-12A2, read-out: MIC for ART24
[9] = ART24, source CO-33 ART 24 BHI, read-out: MIC for ART24
[10] = ART24, source CO-33 ART 024 S, read-out: MIC for ART24
[11] = ART24, source YD CO-33-10A2, read-out: MIC for ART24

Compound | MIC [4, 8] | MIC [4, 9] | MIC [4, 10] | MIC [4, 11] | MIC ([5]; average results from N= 6) | MIC ([6]; average results from N= 6) | MIC ([7]; average results from N= 6) | MIC interpretation for ART24 ([4]; source CO-33-12A2) | MIC interpretation for ART24 ([4]; source CO-33 ART 24 BHI) | MIC interpretation for ART24 ([4]; source CO-33 ART 024 S) | MIC interpretation for ART24 ([4]; source YD CO-33-10A2) | B. amyloliquefaciens MIC ART12 ([5]; average results from N= 6) | B. amyloliquefaciens MIC ART24 ([6]; average results from N= 6) | B. amyloliquefaciens MIC ART4 ([7]; average results from N= 6) | MIC for ART24 ([4]; source CO-33-12A2) | MIC for ART24 ([4]; source CO-33 ART 24 BHI) | MIC for ART24 ([4]; source CO-33 ART 024 S) | MIC for ART24 ([4]; source YD CO-33-10A2) | also measured
CCc1c(Cl)c(O)c(Cl)c(O)c1C(=O)O[C@H]1[C@H](O)[C@H](OC)[C@H](OC/C2=C\C=C\C[C@H](O)/C(C)=C/[C@H](CC)[C@@H](O[C@@H]3OC(C)(C)[C@@H](OC(=O)C(C)C)[C@H](O)[C@@H]3O)/C(C)=C/C(C)=C/C[C@@H]([C@@H](C)O)OC2=O)O[C@@H]1C [Fidaxomicin, fidaxomicin] | 4 µg/mL (≈ 3.78 µM) | 4 µg/mL (≈ 3.78 µM) | 4 µg/mL (≈ 3.78 µM) | 2 µg/mL (≈ 1.89 µM) |  |  |  |  |  |  |  |  |  |  |  |  |  |  | MIC [1]: < 1 µg/mL; MIC [2]: 2 µg/mL; MIC [3]: < 1 µg/mL
Cc1ncc([N+](=O)[O-])n1CCO [Metronidazole, metronidazole] | > 64 µg/mL | > 64 µg/mL | > 64 µg/mL | > 64 µg/mL |  |  |  |  |  |  |  |  |  |  |  |  |  |  | MIC [1]: 64 µg/mL; MIC [2]: 128 µg/mL; MIC [3]: 128 µg/mL; MIC ([4]; ART24, anaerobic, source CO-33-12A2, read-out: MIC for ART24): 64 µg/mL (≈ 374 µM); MIC ([4]; ART24, anaerobic, source CO-33 ART 24 BHI, read-out: MIC for ART24): 64 µg/mL (≈ 374 µM); MIC ([4]; ART24, anaerobic, source CO-33 ART 024 S, read-out: MIC for ART24): 64 µg/mL (≈ 374 µM); MIC ([4]; ART24, anaerobic, source YD CO-33-10A2, read-out: MIC for ART24): 64 µg/mL (≈ 374 µM)
[H]/N=C(/N)N[C@H]1[C@H](O)[C@@H](O)[C@H](O[C@@H]2O[C@@H](C)[C@](O)(C=O)[C@H]2O[C@@H]2O[C@@H](CO)[C@H](O)[C@@H](O)[C@@H]2NC)[C@@H](N/C(N)=N\[H])[C@@H]1O [Streptomycin] | 1 µg/mL (≈ 1.72 µM) | 1 µg/mL (≈ 1.72 µM) | 2 µg/mL (≈ 3.44 µM) | 1 µg/mL (≈ 1.72 µM) | 4 µg/mL (≈ 6.88 µM) | 4 µg/mL (≈ 6.88 µM) | 4 µg/mL (≈ 6.88 µM) | S | S | S | S |  |  |  |  |  |  |  | 
CN(C)[C@@H]1C(O)=C(C(N)=O)C(=O)[C@@]2(O)C(O)=C3C(=O)c4c(O)cccc4[C@@](C)(O)[C@H]3C[C@@H]12 [Tetracycline] | 2 µg/mL (≈ 4.5 µM) | 2 µg/mL (≈ 4.5 µM) | 2 µg/mL (≈ 4.5 µM) | 2 µg/mL (≈ 4.5 µM) | 8 µg/mL (≈ 18 µM) | 4 µg/mL (≈ 9 µM) | 1 µg/mL (≈ 2.25 µM) | S | S | S | S |  |  |  |  |  |  |  | 
COc1cc(Cc2cnc(N)nc2N)cc(OC)c1OC [Trimethoprim] | ≤ 0.25 µg/mL | ≤ 0.25 µg/mL | ≤ 0.25 µg/mL | ≤ 0.25 µg/mL | ≤ 0.12 µg/mL | ≤ 0.12 µg/mL | ≤ 0.12 µg/mL |  |  |  |  |  |  |  |  |  |  |  | 
CN[C@H](CC(C)C)C(=O)N[C@H]1C(=O)N[C@@H](CC(N)=O)C(=O)N[C@H]2C(=O)N[C@H]3C(=O)N[C@H](C(=O)N[C@H](C(=O)O)c4cc(O)cc(O)c4-c4cc3ccc4O)[C@H](O)c3ccc(c(Cl)c3)Oc3cc2cc(c3O[C@@H]2O[C@H](CO)[C@@H](O)[C@H](O)[C@H]2O[C@H]2C[C@](C)(N)[C@H](O)[C@H](C)O2)Oc2ccc(cc2Cl)[C@H]1O [Vancomycin] |  |  |  |  |  |  |  |  |  |  |  |  |  |  |  |  |  |  | animals survived (survivors/group) (C. difficile ATCC 43255): 15/15; MIC [5]: 0.5 µg/mL (≈ 0.345 µM); MIC [6]: 0.5 to 1 µg/mL (≈ 0.345 to 0.69 µM); MIC [7]: 0.5 µg/mL (≈ 0.345 µM); MIC interpretation for ART24 [4]: 0.5 (S) and ≤0.25 (S); MIC ([4]; ART24, read-out: MIC for ART24): 0.5 µg/mL (≈ 0.345 µM)
Gentamicin |  |  |  |  |  |  |  | S | S | S | S | ≤0.5 µg/mL | ≤0.5 µg/mL | ≤0.5 µg/mL | ≤ 0.06 µg/mL | ≤ 0.06 µg/mL | ≤ 0.06 µg/mL | ≤ 0.06 µg/mL | 
Neomycin |  |  |  |  |  |  |  |  |  |  |  | ≤0.5 µg/mL | ≤0.5 µg/mL | ≤0.5 µg/mL | ≤0.12 µg/mL | ≤0.12 µg/mL | ≤0.12 µg/mL | ≤0.12 µg/mL | 
Penicillin |  |  |  |  |  |  |  | S | S | S | S | 0.5 µg/mL | 0.12 to 0.5 µg/mL | 0.12 µg/mL | ≤ 0.03 µg/mL | ≤ 0.03 µg/mL | 0.06 µg/mL | ≤ 0.03 µg/mL | 
Quinupristin-dalfopristin |  |  |  |  |  |  |  |  |  |  |  | 4 µg/mL | 4 µg/mL | 4 µg/mL | 2 µg/mL | 2 µg/mL | 2 µg/mL | 1 µg/mL | 
